Measured values taken from ChEMBL document CHEMBL3085704, “Methyl-thiazoles: a novel mode of inhibition with the potential to develop novel inhibitors targeting InhA in Mycobacterium tuberculosis” (J Med Chem, 2013).

Key:
Format in all cases: functional
[1] = system: Mycobacterium tuberculosis; assay: Antitubercular activity against Mycobacterium tuberculosis H37Rv expressing inhA M103L mutant assessed as parasite growth inhibition after 7 days by Alamar Blue assay
[2] = system: Mycobacterium tuberculosis; assay: Antitubercular activity against Mycobacterium tuberculosis H37Rv expressing inhA M103I mutant assessed as parasite growth inhibition after 7 days by Alamar Blue assay
[3] = system: Mycobacterium tuberculosis; assay: Antitubercular activity against Mycobacterium tuberculosis H37Rv expressing inhA G96V mutant assessed as parasite growth inhibition after 7 days by Alamar Blue assay

Compound	MIC [1]	MIC [2]	MIC [3]
Cc1csc([C@](C)(O)c2nnc(Nc3ccn(Cc4c(F)cccc4F)n3)s2)n1	>25 µM	>25 µM	>25 µM
Cc1csc(C(C)(O)c2nnc(Nc3ncn(Cc4c(F)cccc4F)n3)s2)n1 (racemic)	>25 µM	>25 µM	>25 µM
NNC(=O)c1ccncc1 [ISONIAZID]	0.03 µg/mL	0.06 µg/mL	0.06 µg/mL
COc1c(N2C[C@@H]3CCCN[C@@H]3C2)c(F)cc2c(=O)c(C(=O)O)cn(C3CC3)c12 [MOXIFLOXACIN]	0.12 µg/mL	0.12 µg/mL	0.12 µg/mL
CO[C@H]1/C=C/O[C@@]2(C)Oc3c(C)c(O)c4c(O)c(c(/C=N/N5CCN(C)CC5)c(O)c4c3C2=O)NC(=O)/C(C)=C\C=C\[C@H](C)[C@H](O)[C@@H](C)[C@@H](O)[C@@H](C)[C@H](OC(C)=O)[C@@H]1C [RIFAMPIN]	0.007 µg/mL	0.007 µg/mL	0.01 µg/mL
